According to patent US9701676B2, “Pro-neurogenic compounds” (Board of Regents of The University of Texas System, priority 2012, dated 2017):

Each molecule was assayed on proliferating neural precursor cells in the hippocampus (subgranular layer of the dentate gyrus) (assay: standard in vivo hippocampal neurogenesis assay (BrdU labelling, week-long intracranial mini-pump infusion)). Conditions: 10 μM concentration, seven days of infusion at 0.5 μL/hour, daily IP BrdU; four 12 week old adult male C57/B6 mice; vehicle 14.5.
Set-up: species or system mouse (C57/B6)
Protocol: Compounds were administered at a concentration of 10 μM for each molecule. After seven days of infusion at a constant rate of 0.5 μL/hour, a total of 84 μL of volume will have left the pump (0.00084 μMoles) and entered the cerebrospinal fluid. The average volume of a brain from a 12 week old male, C57/B6 mouse in the study is 500 mm^3. […] Under these conditions, at the end of one week of infusion each compound would be present at 1.7 μMolar concentration. Since the actual amount of chemical compound in the brain is likely to be only a fraction of this predicted level, it is reasonable to estimate that compounds were administered at mid to low-nanomolar concentrations.
During compound infusion, animals were intraperitoneally (IP) injected daily with the thymidine analog, bromodeoxyuridine (BrdU), as a means of scoring the birth and survival of proliferating neural precursor cells in the hippocampus. Because both social interaction and voluntary exercise are known to stimulate hippocampal neurogenesis, mice were housed individually without access to running wheels throughout the screening period. Following the week-long period of compound administration, animals were perfused and sacrificed. Dissected brain tissue was fixed, embedded, sectioned, stained with antibodies to BrdU, and evaluated by light microcopy as a means of quantifying neurogenesis and survival of newborn neural precursor cells localized to the subgranular layer of the dentate gyms on the brain hemisphere contralateral to the side of mini-pump cannulation. Every fifth section throughout the entire rostral-caudal extent of the hippocampus was analyzed, and the total number of BrdU+ cells was normalized against the measured volume of the dentate gyms.
Intracranial infusions of either fibroblast growth factor 2 (FGF-2) or artificial cerebral spinal fluid (aCSF) vehicle via the same, week-long protocol were employed as positive and negative controls.
Compounds were evaluated for pro-neurogenic efficacy/neuroprotection in a standard in vivo hippocampal neurogenesis assay at 10 μM concentration in four 12 week old adult male C57/B16 mice.
N#CCn1c2ccc(Br)cc2c2cc(Br)ccc21 [P7C3-S235, 2-(3,6-dibromo-9H-carbazol-9-yl)acetonitrile] was tested, and the “(×10^−06) BrdU+ cells/mm^3 dentate gyrus” value was 23.4 (×10^−06) BrdU+ cells/mm^3.
With “FGF-2: fibroblast growth factor 2, intracranial infusion employed as positive control” the “(×10^−06) BrdU+ cells/mm^3 dentate gyrus” value was 28.4 (×10^−06) BrdU+ cells/mm^3.
In the case of CC(C)(O)Cn1c2ccc(Br)cc2c2cc(Br)ccc21 [P7C3-S169, 1-(3,6-dibromo-9H-carbazol-9-yl)-2-methylpropan-2-ol], the “(×10^−06) BrdU+ cells/mm^3 dentate gyrus” value is reported as 18.4 (×10^−06) BrdU+ cells/mm^3.
With COc1cccc(NCC(O)CN2c3ccc(Br)cc3CCc3cc(Br)ccc32)c1 (stereo not shown) [P7C3-S76] the “(×10^−06) BrdU+ cells/mm^3 dentate gyrus” value was 28.3 (×10^−06) BrdU+ cells/mm^3.
Cc1ccc2[nH]c3ccc(C)cc3c2c1 [P7C3-S237, 3,6-dimethyl-9H-carbazole] was tested, and the “(×10^−06) BrdU+ cells/mm^3 dentate gyrus” value was 23.5 (×10^−06) BrdU+ cells/mm^3.
For CC(C)NCC(O)CN1c2ccccc2CCc2ccccc21 (stereo not shown) [P7C3-S144, 1-(10,11-dihydro-5H-dibenzo[b,f]azepin-5-yl)-3-(isopropylamino)propan-2-ol], the “(×10^−06) BrdU+ cells/mm^3 dentate gyrus” value was 18.1 (×10^−06) BrdU+ cells/mm^3.
For N#Cc1[nH]c2ccccc2c1N [P7C3-S268, 3-amino-1H-indole-2-carbonitrile], the “(×10^−06) BrdU+ cells/mm^3 dentate gyrus” value was 32.1 (×10^−06) BrdU+ cells/mm^3.
In the case of Cc1ccc2[nH]c3ccc(Br)cc3c2c1 [P7C3-S228, 3-bromo-6-methyl-9H-carbazole], the “(×10^−06) BrdU+ cells/mm^3 dentate gyrus” value is reported as 40.3 (×10^−06) BrdU+ cells/mm^3.
COc1ccc(S(=O)(=O)N(CC(F)Cn2c3ccc(Br)cc3c3cc(Br)ccc32)c2cccc(OC)c2)cc1 (stereo not shown) [P7C3-S258, N-(3-(3,6-dibromo-9H-carbazol-9-yl)-2-fluoropropyl)-4-methoxy-N-(3-methoxyphenyl)benzenesulfonamide] was tested, and the “(×10^−06) BrdU+ cells/mm^3 dentate gyrus” value was 29.8 (×10^−06) BrdU+ cells/mm^3.
With CC(C)CCC[C@@H](C)[C@H]1CC[C@H]2[C@@H]3CCC4=CC(=NO)CC[C@]4(C)[C@H]3CC[C@]12C [P7C3-S266, Cholest-4-en-3-one, oxime, reference compound] the “(×10^−06) BrdU+ cells/mm^3 dentate gyrus” value was 42.3 (×10^−06) BrdU+ cells/mm^3.
In the case of COc1cccc(N(CC(O)Cn2c3ccc(Br)cc3c3cc(Br)ccc32)S(C)(=O)=O)c1 (stereo not shown) [P7C3-S251, N-(3-(3,6-dibromo-9H-carbazol-9-yl)-2-hydroxypropyl)-N-(3-methoxyphenyl)methanesulfonamide], the “(×10^−06) BrdU+ cells/mm^3 dentate gyrus” value is reported as 17.7 (×10^−06) BrdU+ cells/mm^3.
In the case of N#Cc1ccc2c(c1)c1cc(Br)ccc1n2CC(=O)O [P7C3-S224, 2-(3-bromo-6-cyano-9H-carbazol-9-yl)acetic acid], the “(×10^−06) BrdU+ cells/mm^3 dentate gyrus” value is reported as 20.2 (×10^−06) BrdU+ cells/mm^3.
CS(=O)(=O)NC(=O)Cn1c2ccc(Br)cc2c2cc(Br)ccc21 [P7C3-S232, 2-(3,6-dibromo-9H-carbazol-9-yl)-N-(methylsulfonyl)acetamide] was tested, and the “(×10^−06) BrdU+ cells/mm^3 dentate gyrus” value was 16.8 (×10^−06) BrdU+ cells/mm^3.
In the case of O=C(Cn1c2ccc(Br)cc2c2cc(Br)ccc21)NS(=O)(=O)c1ccccc1 [P7C3-S230, 2-(3,6-dibromo-9H-carbazol-9-yl)-N-(phenylsulfonyl)acetamide], the “(×10^−06) BrdU+ cells/mm^3 dentate gyrus” value is reported as 30.5 (×10^−06) BrdU+ cells/mm^3.
In the case of CC(C(=O)O)n1c2ccc(Br)cc2c2cc(Br)ccc21 (stereo not shown) [P7C3-S211, 2-(3,6-dibromo-9H-carbazol-9-yl)propanoic acid], the “(×10^−06) BrdU+ cells/mm^3 dentate gyrus” value is reported as 23 (×10^−06) BrdU+ cells/mm^3.
With O=C(O)c1cc2c(cn1)[nH]c1ccc(Br)cc12 [P7C3-S206, 6-bromo-9H-pyrido[3,4-b]indole-3-carboxylic acid] the “(×10^−06) BrdU+ cells/mm^3 dentate gyrus” value was 29.6 (×10^−06) BrdU+ cells/mm^3.
With CCCCCCN(CCCCCC)C(=O)Cc1c(-c2ccc(F)cc2)[nH]c2ccccc12 [P7C3-S201, N,N-Dihexyl-2-(4-fluorophenyl)indole-3-acetamide, reference compound] the “(×10^−06) BrdU+ cells/mm^3 dentate gyrus” value was 24.8 (×10^−06) BrdU+ cells/mm^3.
With Brc1ccc2[nH]c3ccc(Br)cc3c2c1 [P7C3-S162, 3,6-dibromo-9H-carbazole] the “(×10^−06) BrdU+ cells/mm^3 dentate gyrus” value was 25.2 (×10^−06) BrdU+ cells/mm^3.
For COc1ccc2[nH]cc(CCNC(C)=O)c2c1 [P7C3-S193, Melatonin, reference compound], the “(×10^−06) BrdU+ cells/mm^3 dentate gyrus” value was 15.6 (×10^−06) BrdU+ cells/mm^3.
NC(=O)c1ccc2c(c1)c1cc(Br)ccc1n2CC(=O)O [P7C3-S238, 2-(3-bromo-6-carbamoyl-9H-carbazol-9-yl)acetic acid] was tested, and the “(×10^−06) BrdU+ cells/mm^3 dentate gyrus” value was 18.8 (×10^−06) BrdU+ cells/mm^3.
CNCC(O)CN1c2ccccc2CCc2ccccc21 (stereo not shown) [P7C3-S143, 1-(10,11-dihydro-5H-dibenzo[b,f]azepin-5-yl)-3-(methylamino)propan-2-ol] was tested, and the “(×10^−06) BrdU+ cells/mm^3 dentate gyrus” value was 14.5 (×10^−06) BrdU+ cells/mm^3.
In the case of O=C(NCC(O)Cn1c2ccc(Br)cc2c2cc(Br)ccc21)Nc1ccccc1 (stereo not shown) [P7C3-S277, 1-(3-(3,6-dibromo-9H-carbazol-9-yl)-2-hydroxypropyl)-3-phenylurea], the “(×10^−06) BrdU+ cells/mm^3 dentate gyrus” value is reported as 20.3 (×10^−06) BrdU+ cells/mm^3.
For Cn1c2ccc(Br)cc2c2cc(Br)ccc21 [P7C3-S163, 3,6-dibromo-9-methyl-9H-carbazole], the “(×10^−06) BrdU+ cells/mm^3 dentate gyrus” value was 24.2 (×10^−06) BrdU+ cells/mm^3.
CN(C)CC(F)CN1c2ccccc2CCc2ccccc21 (stereo not shown) [P7C3-S148, 3-(10,11-dihydro-5H-dibenzo[b,f]azepin-5-yl)-2-fluoro-N,N-dimethylpropan-1-amine] was tested, and the “(×10^−06) BrdU+ cells/mm^3 dentate gyrus” value was 22.6 (×10^−06) BrdU+ cells/mm^3.
For O=c1[nH]c(=O)c2[nH]c3ccc(Br)cc3c2[nH]1 [P7C3-S269, 8-bromo-1H-pyrimido[5,4-b]indole-2,4(3H, 5H)-dione], the “(×10^−06) BrdU+ cells/mm^3 dentate gyrus” value was 35.4 (×10^−06) BrdU+ cells/mm^3.
N#Cc1[nH]c2ccc(Br)cc2c1N [P7C3-S222, 3-amino-5-bromo-1H-indole-2-carbonitrile] was tested, and the “(×10^−06) BrdU+ cells/mm^3 dentate gyrus” value was 30.1 (×10^−06) BrdU+ cells/mm^3.
For CCOC(=O)C1=C[C@]2(CC)CCCN3CCc4c(n1c1ccccc41)[C@@H]32 [P7C3-S199, Vinpocetine, reference compound], the “(×10^−06) BrdU+ cells/mm^3 dentate gyrus” value was 26.5 (×10^−06) BrdU+ cells/mm^3.
NC(Cc1c[nH]c2ccc(Br)cc12)C(=O)O (racemic) [P7C3-S207, 5-bromo-DL-tryptophan, reference compound] was tested, and the “(×10^−06) BrdU+ cells/mm^3 dentate gyrus” value was 32.4 (×10^−06) BrdU+ cells/mm^3.
In the case of CC(C)(C)NCC(O)CN1c2ccccc2CCc2ccccc21 (stereo not shown) [P7C3-S145, 1-(tert-butylamino)-3-(10,11-dihydro-5H-dibenzo[b,f]azepin-5-yl)propan-2-ol], the “(×10^−06) BrdU+ cells/mm^3 dentate gyrus” value is reported as 25 (×10^−06) BrdU+ cells/mm^3.
For O=C(O)c1ccc2[nH]c3ccc(Br)cc3c2c1 [P7C3-S225, 6-bromo-9H-carbazole-3-carboxylic acid], the “(×10^−06) BrdU+ cells/mm^3 dentate gyrus” value was 30.4 (×10^−06) BrdU+ cells/mm^3.
OC(CNc1cccc2ccccc12)Cn1c(-c2ccccc2)cc2ccccc21 (stereo not shown) [P7C3-S185, 1-(naphthalen-1-ylamino)-3-(2-phenyl-1H-indol-1-yl)propan-2-ol] was tested, and the “(×10^−06) BrdU+ cells/mm^3 dentate gyrus” value was 25.1 (×10^−06) BrdU+ cells/mm^3.
For CN(C)CC(O)CN1c2ccccc2CCc2ccccc21 (stereo not shown) [P7C3-S139, 1-(10,11-dihydro-5H-dibenzo[b,f]azepin-5-yl)-3-(dimethylamino)propan-2-ol], the “(×10^−06) BrdU+ cells/mm^3 dentate gyrus” value was 24.9 (×10^−06) BrdU+ cells/mm^3.
With O=C(O)CCc1c[nH]c2ccccc12 [P7C3-S242, 3-indolepropionic acid, reference compound] the “(×10^−06) BrdU+ cells/mm^3 dentate gyrus” value was 21.5 (×10^−06) BrdU+ cells/mm^3.
For CN(C)c1nc(O)c2[nH]c3ccc(Br)cc3c2n1 [P7C3-S270, 8-bromo-2-(dimethylamino)-5H-pyrimido[5,4-b]indol-4-ol], the “(×10^−06) BrdU+ cells/mm^3 dentate gyrus” value was 28 (×10^−06) BrdU+ cells/mm^3.
With COc1ccc(S(=O)(=O)N(CC(O)Cn2c3ccc(Br)cc3c3cc(Br)ccc32)c2cccc(OC)c2)cc1 (stereo not shown) [P7C3-S254, N-(3-(3,6-dibromo-9H-carbazol-9-yl)-2-hydroxypropyl)-4-methoxy-N-(3-methoxyphenyl)benzenesulfonamide] the “(×10^−06) BrdU+ cells/mm^3 dentate gyrus” value was 25.5 (×10^−06) BrdU+ cells/mm^3.
With CNCC(F)CN1c2ccccc2CCc2ccccc21 (stereo not shown) [P7C3-S152, 3-(10,11-dihydro-5H-dibenzo[b,f]azepin-5-yl)-2-fluoro-N-methylpropan-1-amine] the “(×10^−06) BrdU+ cells/mm^3 dentate gyrus” value was 26.8 (×10^−06) BrdU+ cells/mm^3.
OC(COc1ccccc1)CN1c2ccccc2CCc2ccccc21 (stereo not shown) [P7C3-S135, 1-(10,11-dihydro-5H-dibenzo[b,f]azepin-5-yl)-3-phenoxypropan-2-ol] was tested, and the “(×10^−06) BrdU+ cells/mm^3 dentate gyrus” value was 14.2 (×10^−06) BrdU+ cells/mm^3.
With N#Cc1ccc2[nH]c3ccc(Br)cc3c2c1 [P7C3-S216, 6-bromo-9H-carbazole-3-carbonitrile] the “(×10^−06) BrdU+ cells/mm^3 dentate gyrus” value was 25.9 (×10^−06) BrdU+ cells/mm^3.
With OC(CSc1ccccc1)CN1c2ccccc2CCc2ccccc21 (stereo not shown) [P7C3-S134, 1-(10,11-dihydro-5H-dibenzo[b,f]azepin-5-yl)-3-(phenylthio)propan-2-ol] the “(×10^−06) BrdU+ cells/mm^3 dentate gyrus” value was 19.4 (×10^−06) BrdU+ cells/mm^3.
With CN1C(=O)CN=C(c2ccc(Cl)cc2)c2cc(Cl)ccc21 [P7C3-S203, 4′-chlorodiazepam, reference compound] the “(×10^−06) BrdU+ cells/mm^3 dentate gyrus” value was 21.5 (×10^−06) BrdU+ cells/mm^3.
